# Laboratory results as given in patent US20260015416A1, “TREATMENT OF DRUG-RESISTANT HEPATOCELLULAR CARCINOMA” (Alentis Therapeutics AG, priority 2022, published 2026).
# System: HCC patient-derived spheroids (primary HCC tumorspheres)
# Assay: HCC patient-derived spheroid viability (CellTiterGlo 3D, ATP quantification)
# Format: cell-based, human
# Conditions: HCC spheroids from 15 different HCC patients; 6 days; H3L3 10 μg/mL, sorafenib 10 μM, nivolumab 10 μg/mL; vs control mAb; FIG. 1C
# Source text: Fragments of tumor tissue (5×5 mm to 8×8 mm size) were excised from tumor mass of HCC patients (n=15 different donors, Table 2) and then processed with enzymatic and mechanical dissociation to generate clusters of tumor cells similarly as described recently (Crouchet E, et al., Nat Commun 2021; 12:5525; Jühling F, et al., Gut 2021; 70:157-69). Aggregates of cells were assembled into spheroids in 96-well Black/Clear Bottom Low Flange Ultra-Low Attachment Microplates (Corning) and cultured in MammoCult basal medium (STEMCELL Technologies), supplemented with human proliferation supplement (3.4%), hydrocortisone (0.056%), heparin (0.011%) and 50% patients' own serum.
# Tumorspheres were treated for 6 days with 10 μg/mL isotype control mAb, with 10 μg/mL anti-Claudin-1 mAb “H3L3” (Table 1), with sorafenib (10 μM, Selleckchem) or with Nivolumab (10 μg/mL, Selleckchem) with at least duplicates per condition. Tumorsphere viability was assessed at day 6 using CellTiterGlo 3D (Promega) according to the manufacturer's instructions.
row,Compound,response rate (defined as a mean decrease in cell viability of >15%)
1,"CNC(=O)c1cc(Oc2ccc(NC(=O)Nc3ccc(Cl)c(C(F)(F)F)c3)cc2)ccn1 [sorafenib, 4-[4-[[4-chloro-3-(trifluoromethyl)phenyl]carbamoylamino]phenoxy]-N -methyl-pyridine-2-carboxamide, reference compound]",33%
2,nivolumab [reference compound],15%
